Columns and labels:
Type in all cases: cell-based
Pseudomonas aeruginosa [1] = assay: MIC and synergistic index of MIT + BBIT in Müller-Hinton broth, 72 h/25° C.; conditions: for Synergistic index Qa/QA + Qb/QB: BBIT MIC of 500 ppm used as basis; for MIC value: only one biocide employed
Protocol: (§1) The synergistic index is calculated by the method of F. C. Kull et al., Applied Microbiology, vol. 9 (1961), p. 538. Here, the synergistic index is calculated using the following formula: Synergistic index SI=Qa/QA+Qb/QB.
(§2) If the synergistic index has a value of above 1, this means that antagonism is present. If the synergistic index assumes a value of 1, this means that an additive effect of the two biocides exists. If the synergistic index assumes a value of less than 1, this means that synergism of the two biocides exists.
(§3) Again, the experimental batches contained a Müller-Hinton broth as the nutrient medium. The cell density was 10^6 cells/ml. The incubation time was 72 hours at 25° C. Each sample was incubated in a shaker-incubator at 120 rpm.

Pseudomonas aeruginosa [2] = assay: MIC and synergistic index of MIT + BNP in Müller-Hinton broth, 72 h/25° C.; conditions: for MIC: Pseudomonas aeruginosa
Protocol: as §1, §2, §3

Pseudomonas aeruginosa [3] = assay: MIC and synergistic index of MIT + HCHO in Müller-Hinton broth, 96 h/25° C.; conditions: for MIC: Pseudomonas aeruginosa; for Synergistic index Qa/QA + Qb/QB: method of Kull
Protocol: In addition to the biocide component and water, the aqueous mixtures also comprised a nutrient medium, viz. a commercially available Müller-Hinton broth. The cell density was 10^6 cells/ml. The incubation time was 96 hours at 25° C. Each sample was incubated in a shaker-incubator at 120 rpm.
as §1, §2

Pseudomonas aeruginosa [4] = assay: MIC and synergistic index of MIT + PMG in Müller-Hinton broth, 48 h/25° C.; conditions: for MIC value: only one biocide employed
Protocol: as §1, §2
Again, the experimental batches contained a Müller-Hinton broth as the nutrient medium. The cell density was 10^6 cells/ml. The incubation time was 48 hours at 25° C. Each sample was incubated in a shaker-incubator at 120 rpm.

Pseudomonas aeruginosa [5] = assay: MIC and synergistic index of MIT + HMBIT in Müller-Hinton broth, 48 h/30° C.; conditions: for MIC value: biocide used alone, 48 hours at 30° C.
Protocol: as §1, §2
Again, the experimental batches contained a Müller-Hinton broth as nutrient medium. The cell density was 10^6 microorganisms/ml. […] Each sample was incubated in a shaker-incubator at 120 rpm.

Pseudomonas aeruginosa [6] = assay: MIC and synergistic index of MIT + BAC in Müller-Hinton broth, 48 h/25° C.; conditions: for MIC value: biocide used alone
Protocol: as §1, §2
Again, the experimental batches contained a Müller-Hinton broth as nutrient medium. The cell density was 10^6 microorganisms/ml. The incubation time was 48 hours at 25° C. Each sample was incubated in a shaker-incubator at 120 rpm.

Pseudomonas aeruginosa [7] = assay: MIC and synergistic index of MIT + NaPy in Müller-Hinton broth, 96 h/25° C.; conditions: for MIC value: only one biocide employed
Protocol: as §1, §2
Again, the experimental batches contained a Müller-Hinton broth as the nutrient medium. The cell density was 10^6 cells/ml. The incubation time was 96 hours at 25° C. Each sample was incubated in a shaker-incubator at 120 rpm.

Pseudomonas aeruginosa [8] = assay: MIC and synergistic index of MIT + OPP in Müller-Hinton broth, 72 h/25° C.; conditions: for MIC: Pseudomonas aeruginosa, 72 h
Protocol: as §1, §2, §3

Pseudomonas aeruginosa [9] = assay: MIC and synergistic index of MIT + ZnPy in Müller-Hinton broth, 72 h/25° C.; conditions: for MIC value: only one biocide employed
Protocol: as §1, §2, §3

[10] = Pseudomonas aeruginosa, incubation 48 h/25° C.

CCCCn1sc2ccccc2c1=O [BBIT, N-butyl-1,2-benzoisothiazolin-3-one]
1.00: Synergistic index Qa/QA + Qb/QB (Pseudomonas aeruginosa [1]) | Qb/QB (Pseudomonas aeruginosa [1]; QB = 500 ppm used as basis)
over 500 ppm: MIC value (Pseudomonas aeruginosa [1])
500 ppm: MIC at Total concentration MIT + BBIT Qa + Qb (Pseudomonas aeruginosa [1]) | MIC at BBIT concentration Qb (Pseudomonas aeruginosa [1]; for BBIT alone 500 ppm used as the basis for the calculation)

O=[N+]([O-])C(Br)(CO)CO [BNP, 2-bromo-2-nitro-1,3-propanediol]
1.00: Qb/QB (Pseudomonas aeruginosa [2]) | Synergistic index Qa/QA + Qb/QB (Pseudomonas aeruginosa [2])
20 mg/L: MIC (Pseudomonas aeruginosa [2]; only one biocide employed, read-out: MIC value) | MIC (Pseudomonas aeruginosa [2]; read-out: MIC at BNP concentration Qb) | MIC (Pseudomonas aeruginosa [2]; read-out: MIC at Total concentration of MIT + BNP Qa + Qb)

C=O [HCHO, formaldehyde]
1.00: Qb/QB (Pseudomonas aeruginosa [3]) | Synergistic index Qa/QA + Qb/QB (Pseudomonas aeruginosa [3])
100 mg/L: MIC (Pseudomonas aeruginosa [3]; only one biocide used, read-out: MIC value) | MIC (Pseudomonas aeruginosa [3]; read-out: MIC at HCHO concentration Qb) | MIC (Pseudomonas aeruginosa [3]; read-out: MIC at Total concentration of MIT + HCHO Qa + Qb)

Cn1sccc1=O [MIT, 2-methylisothiazolin-3-one]
50 ppm: MIC at MIT concentration Qa (Pseudomonas aeruginosa [5]) | MIC at Total concentration MIT + HMBIT Qa + Qb (Pseudomonas aeruginosa [5]) | MIC value (Pseudomonas aeruginosa [5])
60 ppm: MIC at MIT concentration Qa (Pseudomonas aeruginosa [7]) | MIC at Total concentration MIT + NaPy Qa + Qb (Pseudomonas aeruginosa [7]) | MIC value (Pseudomonas aeruginosa [7]) | MIC at MIT concentration Qa (Pseudomonas aeruginosa [3]) | MIC at Total concentration of MIT + HCHO Qa + Qb (Pseudomonas aeruginosa [3]) | MIC value (Pseudomonas aeruginosa [3]; only one biocide used)
40 ppm: MIC at MIT concentration Qa (Pseudomonas aeruginosa [4]) | MIC at Total concentration MIT + PMG Qa + Qb (Pseudomonas aeruginosa [4]) | MIC value (Pseudomonas aeruginosa [4]) | MIC at MIT concentration Qa (Pseudomonas aeruginosa [1]) | MIC at Total concentration MIT + BBIT Qa + Qb (Pseudomonas aeruginosa [1]) | MIC value (Pseudomonas aeruginosa [1]) | MIC at MIT concentration Qa (Pseudomonas aeruginosa [6]; MIT share of the MIC of the MIT + BAC mixture, Pseudomonas aeruginosa, incubation 48 h/25° C.) | MIC at Total concentration MIT + BAC Qa + Qb (Pseudomonas aeruginosa [6]; [10]) | MIC value (Pseudomonas aeruginosa [6]; 48 h/25° C.) | MIC at MIT concentration Qa (Pseudomonas aeruginosa [2]) | MIC at Total concentration of MIT + BNP Qa + Qb (Pseudomonas aeruginosa [2]) | MIC value (Pseudomonas aeruginosa [2]; only one biocide employed) | MIC at MIT concentration Qa (Pseudomonas aeruginosa [8]; 72 h/25° C.) | MIC at Total concentration MIT + OPP Qa + Qb (Pseudomonas aeruginosa [8]; 72 h/25° C.) | MIC value (Pseudomonas aeruginosa [8]; only one biocide employed, 72 h/25° C.) | MIC at MIT concentration Qa (Pseudomonas aeruginosa [9]; 72 h/25° C.) | MIC at Total concentration MIT + ZnPy Qa + Qb (Pseudomonas aeruginosa [9]; 72 h/25° C.) | MIC value (Pseudomonas aeruginosa [9]; 72 h/25° C.)
1.00: Qa/QA (Pseudomonas aeruginosa [4]) | Synergistic index Qa/QA + Qb/QB (Pseudomonas aeruginosa [4]) | Qa/QA (Pseudomonas aeruginosa [1]) | Synergistic index Qa/QA + Qb/QB (Pseudomonas aeruginosa [1]) | Qa/QA (Pseudomonas aeruginosa [5]) | Synergistic index Qa/QA + Qb/QB (Pseudomonas aeruginosa [5]) | Qa/QA (Pseudomonas aeruginosa [6]; MIT concentration in mixture at MIC / MIC of MIT alone (40 ppm), 48 h/25° C.) | Synergistic index Qa/QA + Qb/QB (Pseudomonas aeruginosa [6]; [10]) | Qa/QA (Pseudomonas aeruginosa [7]) | Synergistic index Qa/QA + Qb/QB (Pseudomonas aeruginosa [7]) | Qa/QA (Pseudomonas aeruginosa [3]) | Synergistic index Qa/QA + Qb/QB (Pseudomonas aeruginosa [3]) | Qa/QA (Pseudomonas aeruginosa [2]) | Synergistic index Qa/QA + Qb/QB (Pseudomonas aeruginosa [2]) | Qa/QA (Pseudomonas aeruginosa [8]; 72 h/25° C.) | Synergistic index Qa/QA + Qb/QB (Pseudomonas aeruginosa [8]; 72 h/25° C.) | Synergistic index Qa/QA + Qb/QB (Pseudomonas aeruginosa [9]) | Qa/QA (Pseudomonas aeruginosa [9]; 72 h/25° C.)

[Na+].[O-][n+]1ccccc1[S-] [NaPy, sodium pyrithione]
200 ppm: MIC at NaPy concentration Qb (Pseudomonas aeruginosa [7]) | MIC at Total concentration MIT + NaPy Qa + Qb (Pseudomonas aeruginosa [7]) | MIC value (Pseudomonas aeruginosa [7])
1.00: Qb/QB (Pseudomonas aeruginosa [7]) | Synergistic index Qa/QA + Qb/QB (Pseudomonas aeruginosa [7])

Oc1ccccc1-c1ccccc1 [OPP, o-phenylphenol]
1.00: Qb/QB (Pseudomonas aeruginosa [8]; 72 h/25° C.) | Synergistic index Qa/QA + Qb/QB (Pseudomonas aeruginosa [8]; 72 h/25° C.)
750 mg/L: MIC (Pseudomonas aeruginosa [8]; read-out: MIC at OPP concentration Qb) | MIC (Pseudomonas aeruginosa [8]; read-out: MIC at Total concentration MIT + OPP Qa + Qb) | MIC (Pseudomonas aeruginosa [8]; read-out: MIC value)

N-hydroxymethyl-1,2-benzoisothiazolin-3-one [HMBIT]
150 ppm: MIC at HMBIT concentration Qb (Pseudomonas aeruginosa [5]) | MIC at Total concentration MIT + HMBIT Qa + Qb (Pseudomonas aeruginosa [5]) | MIC value (Pseudomonas aeruginosa [5])
1.00: Qb/QB (Pseudomonas aeruginosa [5]) | Synergistic index Qa/QA + Qb/QB (Pseudomonas aeruginosa [5])

dimethylbenzylalkonium chloride [BAC]
80 ppm: MIC at BAC concentration Qb (Pseudomonas aeruginosa [6]; BAC share of the MIC of the MIT + BAC mixture, Pseudomonas aeruginosa, incubation 48 h/25° C.) | MIC at Total concentration MIT + BAC Qa + Qb (Pseudomonas aeruginosa [6]; [10]) | MIC value (Pseudomonas aeruginosa [6]; 48 h/25° C.)
1.00: Qb/QB (Pseudomonas aeruginosa [6]; BAC concentration in mixture at MIC / MIC of BAC alone (80 ppm), 48 h/25° C.) | Synergistic index Qa/QA + Qb/QB (Pseudomonas aeruginosa [6]; [10])

polyhexamethylenebiguanide [PMG]
30 ppm: MIC at PMG concentration Qb (Pseudomonas aeruginosa [4]) | MIC at Total concentration MIT + PMG Qa + Qb (Pseudomonas aeruginosa [4]) | MIC value (Pseudomonas aeruginosa [4])
1.00: Qb/QB (Pseudomonas aeruginosa [4]) | Synergistic index Qa/QA + Qb/QB (Pseudomonas aeruginosa [4])

zinc pyrithione [ZnPy]
100 ppm: MIC at Total concentration MIT + ZnPy Qa + Qb (Pseudomonas aeruginosa [9]; 72 h/25° C.) | MIC at ZnPy concentration Qb (Pseudomonas aeruginosa [9]; 72 h/25° C., for ZnPy alone 100 ppm used as the basis for the calculation)
1.00: Qb/QB (Pseudomonas aeruginosa [9]; 72 h/25° C., QB = 100 ppm used as basis) | Synergistic index Qa/QA + Qb/QB (Pseudomonas aeruginosa [9]; 72 h/25° C., ZnPy MIC of 100 ppm used as basis)
over 100 ppm: MIC value (Pseudomonas aeruginosa [9]; 72 h/25° C.)

Reference: patent US8323674B2, “Synergistic biocide composition comprising 2-methylisothiazoline-3-one” (Thor GmbH, priority 2000, dated 2012)
